Reference: PMC8921065, “Combination of terbium-161 with somatostatin receptor antagonists—a potential paradigm shift for the treatment of neuroendocrine neoplasms” (European Journal of Nuclear Medicine and Molecular Imaging, 2021)

Test: in vivo
Settings: mouse, iv, 0.2 nmol/mouse, total radioactivity

Measured: tissue uptake at 24 h

C[C@@H](O)[C@@H]1NC(=O)[C@H](CCCCN)NC(=O)[C@@H](Cc2ccc(NC(N)=O)cc2)NC(=O)[C@H](Cc2ccc(O)cc2)NC(=O)[C@H](NC(=O)[C@H](Cc2ccc(Cl)cc2)NC(=O)CN2CCN(CC(=O)O)CCN(CC(=O)O)CCN(CC(=O)O)CC2)CSSC[C@@H](C(=O)N[C@H](Cc2ccc(O)cc2)C(N)=O)NC1=O [metal not drawn]
≤ 0.1 %ID/g: blood | heart | muscle
